Test results reported in PubChem BioAssay AID2060618 (Molecular Pharmacology Branch, DTP, NCI, 2025).

Test system: 454973-116-R2-J3-PDC spheroids, percent test/control viability
Assay: Anticancer human tumor 454973-116-R2-J3-PDC patient-derived pancreatic carcinoma cell line growth inhibition [CLK]
Settings: spheroids with HUVEC and MSC; for IC50: curve of first compound; for viability, T/C: stronger effect = lower value
From the text: A high-throughput screen of multi-cell type tumor spheroids was designed to identify active combinations of […] and targeted small molecules. Complex spheroids include a stromal component modeled by human endothelial cells (HUVEC) and fibroblasts modeled by human mesenchymal stem cells (MSCs). The concentration ranges selected for each drug and investigational agent were based upon clinically achievable concentrations if the clinical Cmax of the agent was known.
Compounds. The drugs and investigational agents: cirtuvivint (SM08502; NSC835563), CC-671 (NSC850746), vemurafenib (NSC761431), tapotoclax (NSC804041), sotorasib (NSC818433), adagrasib (NSC831453), MRTX-1133 (NSC836407), BAY2416964 (NSC825713), copanlisib (NSC816437), inavolisib (NSC800729), abemaciclib (NSC768073), osimertinib (NSC779217), entinostat (NSC756642), eltanexor (KPT-8602, NSC794443), venetoclax (NSC766270), ceralasertib (NSC777638), bortezomib (NSC756655), olaparib (NSC753686), talazoparib (NSC767125), alisertib (NSC759677), peposertib (NSC802822), gemcitabine (NSC613327), 5-fluorouracil (NSC19893), SN-38 (NSC673596), oxaliplatin (NSC266046), paclitaxel (NSC125973), and doxorubicin (NSC123127), were obtained from the National Cancer Institute (NCI) Developmental Therapeutics Program Chemical Repository. The FDA-approved anticancer drug set is available from the Developmental Therapeutics Program at https://dtp.cancer.gov/organization/dscb/obtaining/available plates.htm. […] The stock solutions were prepared in dimethyl sulfoxide (DMSO, Sigma-Aldrich, St. Louis, MO, cat. D2650), except for the platinum complexes which were prepared in saline (Quality Biological, Gaithersburg, MD, cat. 114-055-101), at 800-fold the tested concentration and stored at -70 degrees C prior to their use. All drugs and investigational agents were tested over a range starting from a high concentration at or near the clinical Cmax and decreasing in half-log increments. If the clinical Cmax for an agent had not been determined, the highest concentration tested was 10 microM.
Cell Culture. All cells were maintained in an incubator at 37 degrees C and 5% CO2 with 95% humidity. The PDC lines were cultured according to standard operating procedures established by the NCI PDMR. Briefly, all PDCs were thawed and cultured in Matrigel-coated flasks prepared with a working solution of 1X Ham's F-12 nutrient mix, without supplementation (Invitrogen, Waltham, MA, cat. 11765054), 100 U/mL penicillin-streptomycin (Invitrogen, cat. 15140122), and 2.5% Matrigel (Corning Inc., Corning, NY, cat. 354248) for the first three passages. The 947758-054-R-J2-PDC line was cultured in 6B/Colon 1A media, which includes advanced DMEM/F-12 (Thermo Fisher Scientific, cat. 12634028), 10 mM HEPES (Thermo Fisher Scientific, cat. 15630080), 1X GlutaMAX supplement (Thermo Fisher Scientific, cat. 35050061), 0.1 mg/mL primocin (InvivoGen, cat. ant-pm-2), 10% defined fetal bovine serum, heat inactivated (HyClone Laboratories Inc., cat. SH30070.03HI), 1.25 mM N-Acetyl-L-cysteine (Sigma-Aldrich, cat. A9165), 10 mM nicotinamide (Sigma-Aldrich, cat. N0636), 1X B-27 supplement (Thermo Fisher Scientific, cat. 17504044), 1X N-2 supplement (Thermo Fisher Scientific, cat. 17502048), and 10 microM Y-27632 dihydrochloride (Tocris Bioscience, cat. 1254). The 876862-298-R-J1-PDC was cultured in 6E media, which includes all 6B/Colon 1A media components plus 50% L-WRN conditioned media (ATCC, cat. CRL-3276), 50 ng/mL recombinant human EGF recombinant protein (hEGF; Thermo Fisher Scientific, cat. PHG0311), 10 ng/mL recombinant human fibroblast growth factor 10 (hGFG-10; PeproTech, cat. 100-26), 1 ng/mL recombinant human fibroblast growth factor 2 (hFGF-2; PeproTech, cat. 100-18B), and 1 µM prostaglandin E2 (PGE2; Tocris, cat. 2296). The 227483-062-R1-J1-PDC line was cultured in Panc media, containing all 6E components except hFGF-2, with the addition of 500 nM SB-431542 (Selleckchem, cat. S1067) and 10 nM gastrin (Tocris, cat. 3006). […]
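Also: spheroids exposed to compounds for 7 days before readout.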

Work on `CC(CO)NC(=O)c1cc(-c2ccc(Cl)cc2)nn(-c2cnn(C)c2)c1=O` (configuration not stated) + CN1CCN(c2cc(C(=O)Nc3cc4cc(-c5cnn(C)c5)ccc4cn3)ccn2)CC1 yielded an IC50 (second compound 0.0316 µM) of over 10000 nM, an IC50 (second compound 0.1 µM) of over 10000 nM and an IC50 (second compound 0.316 µM) of under 31.6 nM. For the same molecule, the IC50 (second compound 1 µM) was under 31.6 nM, the IC50 (second compound 3.16 µM) was under 31.6 nM and the IC50 (second compound 10 µM) was under 31.6 nM. For the same molecule, the viability, T/C (second compound 0.0316 µM, first compound 0.0316 µM) was 97.5%, the viability, T/C (second compound 0.0316 µM, first compound 0.1 µM) was 97.8% and the viability, T/C (second compound 0.0316 µM, first compound 0.316 µM) was 95.6%. For the same molecule, the viability, T/C (second compound 0.0316 µM, first compound 1 µM) was 105%, the viability, T/C (second compound 0.0316 µM, first compound 3.16 µM) was 96.5% and the viability, T/C (second compound 0.0316 µM, first compound 10 µM) was 68.4%. It also gave a viability, T/C (second compound 0.1 µM, first compound 0.0316 µM) of 76.9%, a viability, T/C (second compound 0.1 µM, first compound 0.1 µM) of 88.5% and a viability, T/C (second compound 0.1 µM, first compound 0.316 µM) of 80.6%. It also gave a viability, T/C (second compound 0.1 µM, first compound 1 µM) of 86%, a viability, T/C (second compound 0.1 µM, first compound 3.16 µM) of 82% and a viability, T/C (second compound 0.1 µM, first compound 10 µM) of 54.2%. The viability, T/C (second compound 0.316 µM, first compound 0.0316 µM) was 1.94%, the viability, T/C (second compound 0.316 µM, first compound 0.1 µM) was 2.45% and the viability, T/C (second compound 0.316 µM, first compound 0.316 µM) was 2.27%. It also gave a viability, T/C (second compound 0.316 µM, first compound 1 µM) of 2.92%, a viability, T/C (second compound 0.316 µM, first compound 3.16 µM) of 2.59% and a viability, T/C (second compound 0.316 µM, first compound 10 µM) of 4.2%. For the same molecule, the viability, T/C (second compound 1 µM, first compound 0.0316 µM) was 0.11%, the viability, T/C (second compound 1 µM, first compound 0.1 µM) was 0.93% and the viability, T/C (second compound 1 µM, first compound 0.316 µM) was 2.47%. For the same molecule, the viability, T/C (second compound 1 µM, first compound 1 µM) was 0.11%, the viability, T/C (second compound 1 µM, first compound 3.16 µM) was 0.09% and the viability, T/C (second compound 1 µM, first compound 10 µM) was 0.42%. For the same molecule, the viability, T/C (second compound 3.16 µM, first compound 0.0316 µM) was 0.17%, the viability, T/C (second compound 3.16 µM, first compound 0.1 µM) was 0.17% and the viability, T/C (second compound 3.16 µM, first compound 0.316 µM) was 0.24%. The viability, T/C (second compound 3.16 µM, first compound 1 µM) was 0.18%, the viability, T/C (second compound 3.16 µM, first compound 3.16 µM) was 0.16% and the viability, T/C (second compound 3.16 µM, first compound 10 µM) was 0.13%. The viability, T/C (second compound 10 µM, first compound 0.0316 µM) was 1.96%, the viability, T/C (second compound 10 µM, first compound 0.1 µM) was 0.22% and the viability, T/C (second compound 10 µM, first compound 0.316 µM) was 0.37%. The viability, T/C (second compound 10 µM, first compound 1 µM) was 2.01%, the viability, T/C (second compound 10 µM, first compound 3.16 µM) was 0.24% and the viability, T/C (second compound 10 µM, first compound 10 µM) was 0.36%.
